{
  "source": "patent US9790178B2",
  "about": "“Pyrrolidinyl urea, thiourea, guanidine and cyanoguanidine compounds as TrkA kinase inhibitors” (Array BioPharma Inc., priority 2012, dated 2017)",
  "experiment_in_all_cases": "KinaseProfiler off-target kinase profiling",
  "type_in_all_cases": "biochemical",
  "settings_in_all_cases": "10 μM, ATP near Km",
  "key": {"ALK": {"target": "T1, ALK (Homo sapiens, UniProt Q9UM73)", "T1 construct": "purchased Millipore, Inc. (KinaseProfiler service)", "method": "(§1) A representative compound of the invention (Example 20) was tested for off-target kinase activity at a concentration of 10 μM by Millipore, Inc. in their KinaseProfiler™ service against all the kinases available in their full kinase panel. The compound was run in duplicate at a concentration of ATP near the Km for each individual kinase according to Millipore's specifications. The results are shown in Table B. Data are reported as percent of control (POC) and are the average of the two replicates."}, "Abl2": {"target": "T2, Abl2 (Homo sapiens, UniProt P42684)", "T2 construct": "purchased Millipore, Inc. (KinaseProfiler service)", "method": "as §1"}, "Axl": {"target": "T3, Axl (Homo sapiens, UniProt P30530)", "T3 construct": "purchased Millipore, Inc. (KinaseProfiler service)", "method": "as §1"}, "BLK_m": {"target": "T4, BLK_m (Mus musculus, UniProt P16277)", "T4 construct": "purchased Millipore, Inc. (KinaseProfiler service)", "method": "as §1"}, "CAMK2d": {"target": "T5, CAMK2d (Homo sapiens, UniProt Q13557)", "T5 construct": "purchased Millipore, Inc. (KinaseProfiler service)", "method": "as §1"}, "CDK2/cyclinE": {"target": "T6, CDK2/cyclinE (Homo sapiens, UniProt P24941)", "T6 construct": "purchased Millipore, Inc. (KinaseProfiler service)", "method": "as §1"}, "CDK3/cyclinE": {"target": "T7, CDK3/cyclinE (Homo sapiens, UniProt Q00526)", "T7 construct": "purchased Millipore, Inc. (KinaseProfiler service)", "method": "as §1"}, "CK1gamma3": {"target": "T8, CK1gamma3 (Homo sapiens, UniProt Q9Y6M4)", "T8 construct": "purchased Millipore, Inc. (KinaseProfiler service)", "method": "as §1"}, "EphA3": {"target": "T9, EphA3 (Homo sapiens, UniProt P29320)", "T9 construct": "purchased Millipore, Inc. (KinaseProfiler service)", "method": "as §1"}, "EphA4": {"target": "T10, EphA4 (Homo sapiens, UniProt P54764)", "T10 construct": "purchased Millipore, Inc. (KinaseProfiler service)", "T10 sequence (P54764 20-986)": "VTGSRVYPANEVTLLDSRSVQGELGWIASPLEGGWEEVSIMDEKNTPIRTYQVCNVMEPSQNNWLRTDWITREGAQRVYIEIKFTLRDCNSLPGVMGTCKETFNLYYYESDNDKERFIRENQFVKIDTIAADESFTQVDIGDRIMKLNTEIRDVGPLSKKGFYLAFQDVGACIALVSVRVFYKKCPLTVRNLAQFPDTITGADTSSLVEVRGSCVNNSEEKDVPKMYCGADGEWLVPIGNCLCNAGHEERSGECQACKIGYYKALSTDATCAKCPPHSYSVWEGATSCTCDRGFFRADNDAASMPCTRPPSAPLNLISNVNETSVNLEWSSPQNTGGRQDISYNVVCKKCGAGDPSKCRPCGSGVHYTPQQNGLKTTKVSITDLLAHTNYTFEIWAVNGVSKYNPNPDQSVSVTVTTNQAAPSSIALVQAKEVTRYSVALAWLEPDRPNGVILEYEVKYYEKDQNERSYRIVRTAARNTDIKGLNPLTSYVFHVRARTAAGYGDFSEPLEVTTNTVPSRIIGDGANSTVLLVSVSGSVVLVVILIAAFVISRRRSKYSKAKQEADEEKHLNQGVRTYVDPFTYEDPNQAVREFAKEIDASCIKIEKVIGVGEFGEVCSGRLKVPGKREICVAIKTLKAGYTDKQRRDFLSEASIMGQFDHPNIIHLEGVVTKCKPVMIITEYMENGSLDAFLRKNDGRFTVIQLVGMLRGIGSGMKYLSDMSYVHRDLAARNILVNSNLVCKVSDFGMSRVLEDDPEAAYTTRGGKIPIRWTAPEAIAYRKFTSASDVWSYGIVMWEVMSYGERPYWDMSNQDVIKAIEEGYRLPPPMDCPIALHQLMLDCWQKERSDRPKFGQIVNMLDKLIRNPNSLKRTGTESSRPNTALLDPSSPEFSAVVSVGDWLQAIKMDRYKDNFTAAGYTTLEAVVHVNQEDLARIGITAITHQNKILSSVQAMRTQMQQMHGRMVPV", "method": "as §1"}, "FGFR2": {"target": "T11, FGFR2 (Homo sapiens, UniProt P21802)", "T11 construct": "purchased Millipore, Inc. (KinaseProfiler service)", "method": "as §1"}, "Fer": {"target": "T12, Fer (Homo sapiens, UniProt P16591)", "T12 construct": "purchased Millipore, Inc. (KinaseProfiler service)", "method": "as §1"}, "Flt1": {"target": "T13, Flt1 (Homo sapiens, UniProt P17948)", "T13 construct": "purchased Millipore, Inc. (KinaseProfiler service)", "method": "as §1"}, "Flt3": {"target": "T14, Flt3 (Homo sapiens, UniProt P36888)", "T14 construct": "purchased Millipore, Inc. (KinaseProfiler service)", "method": "as §1"}, "HIPK2": {"target": "T15, HIPK2 (Homo sapiens, UniProt Q9H2X6)", "T15 construct": "purchased Millipore, Inc. (KinaseProfiler service)", "method": "as §1"}, "HIPK3": {"target": "T16, HIPK3 (Homo sapiens, UniProt Q9H422)", "T16 construct": "purchased Millipore, Inc. (KinaseProfiler service)", "T16 sequence (Q9H422 whole entry)": "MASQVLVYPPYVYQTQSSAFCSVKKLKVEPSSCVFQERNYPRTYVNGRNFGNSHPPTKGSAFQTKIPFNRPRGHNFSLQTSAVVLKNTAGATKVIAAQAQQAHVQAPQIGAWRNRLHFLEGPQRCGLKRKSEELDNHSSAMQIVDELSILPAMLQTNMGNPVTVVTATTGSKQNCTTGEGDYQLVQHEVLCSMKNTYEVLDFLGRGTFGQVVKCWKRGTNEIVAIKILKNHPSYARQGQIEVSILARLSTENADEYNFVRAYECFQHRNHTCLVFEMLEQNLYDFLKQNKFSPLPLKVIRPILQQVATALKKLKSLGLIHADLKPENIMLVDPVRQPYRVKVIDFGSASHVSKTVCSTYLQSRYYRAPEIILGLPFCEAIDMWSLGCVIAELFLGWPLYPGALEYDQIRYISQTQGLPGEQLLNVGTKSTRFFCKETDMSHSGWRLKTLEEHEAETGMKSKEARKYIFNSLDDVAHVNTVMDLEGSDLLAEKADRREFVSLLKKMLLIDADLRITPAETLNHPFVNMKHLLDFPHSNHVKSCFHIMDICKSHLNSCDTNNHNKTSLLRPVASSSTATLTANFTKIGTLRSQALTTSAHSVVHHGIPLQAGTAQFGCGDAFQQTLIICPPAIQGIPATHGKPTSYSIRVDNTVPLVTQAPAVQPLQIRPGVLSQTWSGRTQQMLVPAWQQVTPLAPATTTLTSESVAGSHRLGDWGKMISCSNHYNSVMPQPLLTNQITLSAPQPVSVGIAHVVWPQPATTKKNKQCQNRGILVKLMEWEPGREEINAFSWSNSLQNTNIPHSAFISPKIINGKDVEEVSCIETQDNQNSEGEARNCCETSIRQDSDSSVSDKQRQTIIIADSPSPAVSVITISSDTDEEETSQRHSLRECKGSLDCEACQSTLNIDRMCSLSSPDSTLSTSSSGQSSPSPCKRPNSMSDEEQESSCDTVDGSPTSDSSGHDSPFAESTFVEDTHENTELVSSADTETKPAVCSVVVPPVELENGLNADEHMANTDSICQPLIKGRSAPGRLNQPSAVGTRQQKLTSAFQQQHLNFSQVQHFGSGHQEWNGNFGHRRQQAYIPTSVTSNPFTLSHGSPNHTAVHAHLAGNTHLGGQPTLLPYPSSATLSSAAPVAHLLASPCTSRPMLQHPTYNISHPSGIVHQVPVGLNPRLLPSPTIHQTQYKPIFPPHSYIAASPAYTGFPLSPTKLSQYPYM", "method": "as §1"}, "JAK3": {"target": "T17, JAK3 (Homo sapiens, UniProt P52333)", "T17 construct": "purchased Millipore, Inc. (KinaseProfiler service)", "method": "as §1"}, "JNK2alpha2": {"target": "T18, JNK2alpha2 (Homo sapiens, UniProt P45984)", "T18 construct": "purchased Millipore, Inc. (KinaseProfiler service)", "method": "as §1"}, "MAPKAP-K5": {"target": "T19, MAPKAP-K5 (Homo sapiens, UniProt Q8IW41)", "T19 construct": "purchased Millipore, Inc. (KinaseProfiler service)", "method": "as §1"}, "MKNK2": {"target": "T20, MKNK2 (Homo sapiens, UniProt Q9HBH9)", "T20 construct": "purchased Millipore, Inc. (KinaseProfiler service)", "method": "as §1"}, "MRCKalpha": {"target": "T21, MRCKalpha (Homo sapiens, UniProt Q5VT25)", "T21 construct": "purchased Millipore, Inc. (KinaseProfiler service)", "method": "as §1"}, "MST1": {"target": "T22, MST1 (Homo sapiens, UniProt Q13043)", "T22 construct": "purchased Millipore, Inc. (KinaseProfiler service)", "method": "as §1"}, "NEK2": {"target": "T23, NEK2 (Homo sapiens, UniProt P51955)", "T23 construct": "purchased Millipore, Inc. (KinaseProfiler service)", "method": "as §1"}, "PAK3": {"target": "T24, PAK3 (Homo sapiens, UniProt O75914)", "T24 construct": "purchased Millipore, Inc. (KinaseProfiler service)", "method": "as §1"}, "PDGFRbeta": {"target": "T25, PDGFRbeta (Homo sapiens, UniProt P09619)", "T25 construct": "purchased Millipore, Inc. (KinaseProfiler service)", "T25 sequence (P09619 33-1106)": "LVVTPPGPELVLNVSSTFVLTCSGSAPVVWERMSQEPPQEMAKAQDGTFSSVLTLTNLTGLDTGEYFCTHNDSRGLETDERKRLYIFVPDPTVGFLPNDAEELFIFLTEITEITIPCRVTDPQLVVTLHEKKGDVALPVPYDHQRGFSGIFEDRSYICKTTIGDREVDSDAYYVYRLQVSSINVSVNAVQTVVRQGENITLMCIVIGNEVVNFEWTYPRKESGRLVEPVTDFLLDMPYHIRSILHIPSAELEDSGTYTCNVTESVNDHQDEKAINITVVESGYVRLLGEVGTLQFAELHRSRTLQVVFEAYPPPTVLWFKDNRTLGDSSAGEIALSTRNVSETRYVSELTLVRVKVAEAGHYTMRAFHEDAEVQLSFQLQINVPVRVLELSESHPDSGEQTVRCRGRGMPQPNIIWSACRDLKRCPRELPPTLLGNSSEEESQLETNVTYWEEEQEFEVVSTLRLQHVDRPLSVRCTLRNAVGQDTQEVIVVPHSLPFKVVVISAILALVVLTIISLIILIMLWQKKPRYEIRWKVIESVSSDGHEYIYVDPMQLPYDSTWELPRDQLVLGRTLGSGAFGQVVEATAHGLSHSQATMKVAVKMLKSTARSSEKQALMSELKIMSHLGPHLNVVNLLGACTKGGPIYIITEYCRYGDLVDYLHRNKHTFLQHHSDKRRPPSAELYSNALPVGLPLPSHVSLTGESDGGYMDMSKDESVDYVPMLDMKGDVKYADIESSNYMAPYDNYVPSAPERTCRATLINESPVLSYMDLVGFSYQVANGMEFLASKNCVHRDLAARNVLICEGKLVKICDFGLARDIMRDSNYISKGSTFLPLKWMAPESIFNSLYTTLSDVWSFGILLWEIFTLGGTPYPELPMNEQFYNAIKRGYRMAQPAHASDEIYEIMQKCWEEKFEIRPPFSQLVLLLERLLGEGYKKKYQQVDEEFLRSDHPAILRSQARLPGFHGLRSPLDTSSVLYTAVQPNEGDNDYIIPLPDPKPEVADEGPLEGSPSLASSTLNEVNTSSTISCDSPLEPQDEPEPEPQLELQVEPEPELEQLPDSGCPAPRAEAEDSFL", "method": "as §1"}, "PKCdelta": {"target": "T26, PKCdelta (Homo sapiens, UniProt Q05655)", "T26 construct": "purchased Millipore, Inc. (KinaseProfiler service)", "method": "as §1"}, "PKCzeta": {"target": "T27, PKCzeta (Homo sapiens, UniProt Q05513)", "T27 construct": "purchased Millipore (KinaseProfiler service)", "T27 sequence (Q05513 whole entry)": "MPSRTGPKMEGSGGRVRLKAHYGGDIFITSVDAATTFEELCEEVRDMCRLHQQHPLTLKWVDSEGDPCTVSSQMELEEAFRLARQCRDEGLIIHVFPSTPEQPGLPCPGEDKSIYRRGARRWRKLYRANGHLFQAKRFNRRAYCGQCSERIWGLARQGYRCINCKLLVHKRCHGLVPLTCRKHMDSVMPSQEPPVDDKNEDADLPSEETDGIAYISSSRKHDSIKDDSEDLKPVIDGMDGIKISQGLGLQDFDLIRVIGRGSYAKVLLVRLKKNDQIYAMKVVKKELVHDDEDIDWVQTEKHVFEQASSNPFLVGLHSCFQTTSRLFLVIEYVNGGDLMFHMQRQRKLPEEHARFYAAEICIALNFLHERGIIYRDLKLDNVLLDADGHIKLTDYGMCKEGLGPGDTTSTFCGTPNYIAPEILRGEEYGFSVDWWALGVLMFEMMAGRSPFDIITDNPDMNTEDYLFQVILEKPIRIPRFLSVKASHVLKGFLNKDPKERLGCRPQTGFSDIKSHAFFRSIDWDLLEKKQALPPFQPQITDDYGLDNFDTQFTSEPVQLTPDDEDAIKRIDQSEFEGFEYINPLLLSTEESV", "method": "as §1"}, "Plk1": {"target": "T28, Plk1 (Homo sapiens, UniProt P53350)", "T28 construct": "purchased Millipore (KinaseProfiler service)", "method": "as §1"}, "Plk3": {"target": "T29, Plk3 (Homo sapiens, UniProt Q9H4B4)", "T29 construct": "purchased Millipore (KinaseProfiler service)", "method": "as §1"}, "RIPK2": {"target": "T30, RIPK2 (Homo sapiens, UniProt O43353)", "T30 construct": "purchased Millipore (KinaseProfiler service)", "T30 sequence (O43353 whole entry)": "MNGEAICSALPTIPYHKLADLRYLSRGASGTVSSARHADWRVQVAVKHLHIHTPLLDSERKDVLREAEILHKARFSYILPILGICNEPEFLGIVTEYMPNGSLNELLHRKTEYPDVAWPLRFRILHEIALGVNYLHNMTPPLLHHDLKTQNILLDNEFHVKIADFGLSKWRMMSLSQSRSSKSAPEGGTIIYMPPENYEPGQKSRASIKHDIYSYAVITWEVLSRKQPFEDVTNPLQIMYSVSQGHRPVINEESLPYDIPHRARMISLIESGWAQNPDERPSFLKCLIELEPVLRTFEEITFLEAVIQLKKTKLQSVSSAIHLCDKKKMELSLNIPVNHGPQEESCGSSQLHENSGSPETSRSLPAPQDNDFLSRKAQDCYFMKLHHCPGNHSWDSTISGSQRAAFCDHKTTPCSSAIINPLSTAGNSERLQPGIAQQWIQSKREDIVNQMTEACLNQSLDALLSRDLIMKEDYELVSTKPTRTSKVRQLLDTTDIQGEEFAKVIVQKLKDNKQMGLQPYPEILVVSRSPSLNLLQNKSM", "method": "as §1"}, "Rsk1": {"target": "T31, Rsk1 (Homo sapiens, UniProt Q15418)", "T31 construct": "purchased Millipore (KinaseProfiler service)", "method": "as §1"}, "SGK2": {"target": "T32, SGK2 (Homo sapiens, UniProt Q9HBY8)", "T32 construct": "purchased Millipore, Inc. (KinaseProfiler service)", "method": "as §1"}, "TAK1": {"target": "T33, TAK1 (Homo sapiens, UniProt O43318)", "T33 construct": "purchased Millipore, Inc. (KinaseProfiler service)", "method": "as §1"}, "TAO2": {"target": "T34, TAO2 (Homo sapiens, UniProt Q9UL54)", "T34 construct": "purchased Millipore, Inc. (KinaseProfiler service)", "method": "as §1"}, "TEC Activated": {"target": "T35, TEC Activated (Homo sapiens, UniProt P42680)", "T35 construct": "purchased Millipore, Inc. (KinaseProfiler service)", "method": "as §1"}, "TrkA": {"target": "T36, TrkA (Homo sapiens, UniProt P04629)", "T36 construct": "purchased Millipore, Inc. (KinaseProfiler service)", "method": "as §1"}, "VRK2": {"target": "T37, VRK2 (Homo sapiens, UniProt Q86Y07)", "T37 construct": "purchased Millipore, Inc. (KinaseProfiler service)", "method": "as §1"}, "WNK3": {"target": "T38, WNK3 (Homo sapiens, UniProt Q9BYP7)", "T38 construct": "purchased Millipore, Inc. (KinaseProfiler service)", "method": "as §1"}, "ZAP-70": {"target": "T39, ZAP-70 (Homo sapiens, UniProt P43403)", "T39 construct": "purchased Millipore, Inc. (KinaseProfiler service)", "T39 sequence (P43403 whole entry)": "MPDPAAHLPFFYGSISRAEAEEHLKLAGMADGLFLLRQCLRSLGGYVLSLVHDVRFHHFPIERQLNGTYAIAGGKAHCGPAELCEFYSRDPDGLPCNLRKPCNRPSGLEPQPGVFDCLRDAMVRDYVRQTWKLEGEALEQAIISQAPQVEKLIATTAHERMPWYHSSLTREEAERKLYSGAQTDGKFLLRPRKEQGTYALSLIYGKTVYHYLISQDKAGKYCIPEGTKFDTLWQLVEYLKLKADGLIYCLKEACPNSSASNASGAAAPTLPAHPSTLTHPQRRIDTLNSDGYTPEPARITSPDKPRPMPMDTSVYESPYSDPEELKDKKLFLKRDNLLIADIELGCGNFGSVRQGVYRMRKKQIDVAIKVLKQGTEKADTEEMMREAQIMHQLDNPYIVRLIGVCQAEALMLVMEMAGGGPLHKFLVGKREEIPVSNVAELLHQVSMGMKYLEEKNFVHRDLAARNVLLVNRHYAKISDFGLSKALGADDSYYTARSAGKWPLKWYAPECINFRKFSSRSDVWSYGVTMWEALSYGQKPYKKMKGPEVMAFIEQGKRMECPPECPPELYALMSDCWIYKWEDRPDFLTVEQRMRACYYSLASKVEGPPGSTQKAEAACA", "method": "as §1"}, "eEF-2K": {"target": "T40, eEF-2K (Homo sapiens, UniProt O00418)", "T40 construct": "purchased Millipore, Inc. (KinaseProfiler service)", "method": "as §1"}, "p38alpha": {"target": "T41, p38alpha (Homo sapiens, UniProt Q16539)", "T41 construct": "purchased Millipore, Inc. (KinaseProfiler service)", "method": "as §1"}},
  "data": [
    {"smiles": "COCCN1C[C@@H](NC(=O)Nc2c(-c3ccccc3)nc3c(C)nccn23)[C@H](c2ccc(F)c(F)c2)C1", "note": "[Example 20, 1-((3S,4R)-4-(3,4-difluorophenyl)-1-(2-methoxyethyl)pyrrolidin-3-yl)-3-(8-methyl-2-phenylimidazo[1,2-a]pyrazin-3-yl)urea]", "values": [
      {"measurement": "Avg. POC", "setting": "ALK", "result": 114, "unit": "POC"},
      {"measurement": "Avg. POC", "setting": "Abl2", "result": 112.5, "unit": "POC"},
      {"measurement": "Avg. POC", "setting": "Axl", "result": 97, "unit": "POC"},
      {"measurement": "Avg. POC", "setting": "BLK_m", "result": 113, "unit": "POC"},
      {"measurement": "Avg. POC", "setting": "CAMK2d", "result": 102, "unit": "POC"},
      {"measurement": "Avg. POC", "setting": "CDK2/cyclinE", "result": 118.5, "unit": "POC"},
      {"measurement": "Avg. POC", "setting": "CDK3/cyclinE", "result": 111, "unit": "POC"},
      {"measurement": "Avg. POC", "setting": "CK1gamma3", "result": 112, "unit": "POC"},
      {"measurement": "Avg. POC", "setting": "EphA3", "result": 98, "unit": "POC"},
      {"measurement": "Avg. POC", "setting": "EphA4", "result": 106, "unit": "POC"},
      {"measurement": "Avg. POC", "setting": "FGFR2", "result": 106, "unit": "POC"},
      {"measurement": "Avg. POC", "setting": "Fer", "result": 91.5, "unit": "POC"},
      {"measurement": "Avg. POC", "setting": "Flt1", "result": 100, "unit": "POC"},
      {"measurement": "Avg. POC", "setting": "Flt3", "result": 110, "unit": "POC"},
      {"measurement": "Avg. POC", "setting": "HIPK2", "result": 102, "unit": "POC"},
      {"measurement": "Avg. POC", "setting": "HIPK3", "result": 105.5, "unit": "POC"},
      {"measurement": "Avg. POC", "setting": "JAK3", "result": 115, "unit": "POC"},
      {"measurement": "Avg. POC", "setting": "JNK2alpha2", "result": 107.5, "unit": "POC"},
      {"measurement": "Avg. POC", "setting": "MAPKAP-K5", "result": 88.5, "unit": "POC"},
      {"measurement": "Avg. POC", "setting": "MKNK2", "result": 103, "unit": "POC"},
      {"measurement": "Avg. POC", "setting": "MRCKalpha", "result": 101.5, "unit": "POC"},
      {"measurement": "Avg. POC", "setting": "MST1", "result": 89.5, "unit": "POC"},
      {"measurement": "Avg. POC", "setting": "NEK2", "result": 91, "unit": "POC"},
      {"measurement": "Avg. POC", "setting": "PAK3", "result": 219.5, "unit": "POC"},
      {"measurement": "Avg. POC", "setting": "PDGFRbeta", "result": 114, "unit": "POC"},
      {"measurement": "Avg. POC", "setting": "PKCdelta", "result": 106.5, "unit": "POC"},
      {"measurement": "Avg. POC", "setting": "PKCzeta", "result": 104, "unit": "POC"},
      {"measurement": "Avg. POC", "setting": "Plk1", "result": 104, "unit": "POC"},
      {"measurement": "Avg. POC", "setting": "Plk3", "result": 99.5, "unit": "POC"},
      {"measurement": "Avg. POC", "setting": "RIPK2", "result": 97.5, "unit": "POC"},
      {"measurement": "Avg. POC", "setting": "Rsk1", "result": 115, "unit": "POC"},
      {"measurement": "Avg. POC", "setting": "SGK2", "result": 105, "unit": "POC"},
      {"measurement": "Avg. POC", "setting": "TAK1", "result": 97, "unit": "POC"},
      {"measurement": "Avg. POC", "setting": "TAO2", "result": 104.5, "unit": "POC"},
      {"measurement": "Avg. POC", "setting": "TEC Activated", "result": 107, "unit": "POC"},
      {"measurement": "Avg. POC", "setting": "TrkA", "result": 0, "unit": "POC"},
      {"measurement": "Avg. POC", "setting": "VRK2", "result": 117.5, "unit": "POC"},
      {"measurement": "Avg. POC", "setting": "WNK3", "result": 115.5, "unit": "POC"},
      {"measurement": "Avg. POC", "setting": "ZAP-70", "result": 102.5, "unit": "POC"},
      {"measurement": "Avg. POC", "setting": "eEF-2K", "result": 108, "unit": "POC"},
      {"measurement": "Avg. POC", "setting": "p38alpha", "result": 97.5, "unit": "POC"}
    ]}
  ]
}
